Experimental data taken from US6444671B1, “Cyclic AMP-specific phosphodiesterase inhibitors” (ICOS Corporation, priority 1999, dated 2002).
Like-named read-outs stand apart in the source and are kept apart here.

What was measured:
recombinant human PDE4 [1] = system: T1, recombinant human PDE4; test: PDE4 inhibition, recombinant human PDE4, [32P]cAMP charcoal separation assay; format: biochemical
T1 construct: PDE4 IC50 (nM); other: recombinant human PDE4
Method: The compounds of structural formula (II) were tested for an ability to inhibit PDE4. The ability of a compound to inhibit PDE4 activity is related to the IC50 value for the compound, i.e., the concentration of inhibitor required for 50% inhibition of enzyme activity. The IC50 value for compounds of structural formula (II) were determined using recombinant human PDE4.
The production of recombinant human PDEs and the IC50 determinations can be accomplished by well-known methods in the art. Exemplary methods are described as follows:
Recombinant production of human PDE1B, PDE2, PDE4A, PDE4B, PDE4C, PDE4D, PDE5, and PDE7 was carried out similarly to that described in Example 7 of U.S. Pat. No. 5,702,936, incorporated herein by reference, except that the yeast transformation vector employed, which is derived from the basic ADH2 plasmid described in Price et al., Methods in Enzymology, 135, pp. 308-318 (1990), incorporated. yeast ADH2 promoter and terminator sequences and the Saccharomyces cerevisiae host was the protease-deficient strain BJ2-54 deposited on Aug. 31, 1998 with the American Type Culture Collection, Manassas, Va., under accession number ATCC 74465. Transformed host cells were grown in 2×SC-leu medium, pH 6.2, with trace metals, and vitamins. After 24 hours, YEP medium-containing glycerol was added to a final concentration of 2×YET/3% glycerol. Approximately 24 hr later, cells were harvested, washed, and stored at −70° C.
Phosphodiesterase activity of the preparations was determined as follows. PDE assays utilizing a charcoal separation technique were performed essentially as described in Loughney et al. (1996). In this assay, PDE activity converts [32P]cAMP or [32P]cGMP to the corresponding [32P]5′-AMP or [32P]5′-GMP in proportion to the amount of PDE activity present. The [32P]5′-AMP or [32P]5′-GMP then was quantitatively converted to free [32P]phosphate and unlabeled adenosine or guanosine by the action of snake venom 5′-nucleotidase. […] The assay was performed at 30° C. in a 100 μL reaction mixture containing (final concentrations) 40 mM Tris HCl (pH 8.0), 1 μM ZnSO4, 5 mM MgCl2, and 0.1 mg/mL bovine serum albumin (BSA) Alternatively, in assays assessing PDE1-specific activity, incubation mixtures further incorporated the use of 0.1 mM CaChe and 10 μg/mL calmodulin. PDE enzyme was present in quantities that yield<30% total hydrolysis of substrate (linear assay conditions). The assay was initiated by addition of substrate ([…] [32P]cAMP or cGMP), and the mixture was incubated for 12 minutes. […] After centrifugation (750×g for 3 minutes) to sediment the charcoal, a sample of the supernatant was taken for radioactivity determination in a scintillation counter and the PDE activity was calculated.

recombinant human PDE4 [2] = details: reported value, background section; read-out: IC50 with respect to inhibiting recombinant human PDE4; cited from earlier work
[3] = in vivo; cited from earlier work

| Molecule | IC50 (recombinant human PDE4 [1]) [nM] | further results |
| --- | --- | --- |
| COc1ccc(C2CNC(=O)C2)cc1OC1CCCC1 (stereo not shown) [Rolipram, rolipram] |  | IC50 (recombinant human PDE4 [2]): ~200 nM |
| COC(=O)N1CC(c2ccc(OC)c(OC3CCCC3)c2)C(C)(C(C)=O)C1 (stereo not shown) [formula (I)] |  | IC50 (recombinant human PDE4 [2]): ~2 nM |
| R-rolipram |  | Emetic potential relative to the (+)-enantiomer (S-rolipram) [3]: about ten-fold more emetic |

More lines, main results first:

| IC50 (recombinant human PDE4 [1]) [nM] | Molecule | further results |
| --- | --- | --- |
| 316 | CCc1nn(C2CCCC2)c2cc([C@@H]3CN(Cc4ccccc4)C[C@@]3(C)C(C)O)ccc12 (stereo partly drawn) [Example 1, (1S)-1-[(3S,4S)-4-(1-Cyclopentyl-3-ethyl(1H-indazol-6-yl))-3-methyl-1-benzylpyrrolidin-3-yl]ethan-1-ol] |  |
| 87.6 | CCc1nn(C2CCCC2)c2cc([C@@H]3CN(Cc4ccccc4)C[C@@]3(C)C(C)O)ccc12 (stereo partly drawn) [Example 2, (1R)-1-[(3S,4S)-4-(1-Cyclopentyl-3-ethyl(1H-indazol-6-yl))-3-methyl-1-benzylpyrrolidin-3-yl]ethan-1-ol] |  |
| 6.1 | CCc1nn(C2CCCC2)c2cc([C@@H]3CN(Cc4ccccc4)C[C@@]3(C)CO)ccc12 [Example 3, [(3S,4S)-4-(1-Cyclopentyl-3-ethyl(1H-indazol-6-yl))-3-methyl-1-benzylpyrrolidin-3-yl]methan-1-ol] |  |
| 79.3 | CCc1nn(C2CCCC2)c2cc([C@@H]3CN(C(=O)OC)C[C@@]3(C)CO)ccc12 [Example 4, Methyl (3S,4S)-4-(1-cyclopentyl-3-ethyl(1H-indazol-6-yl))-3-(hydroxymethyl)-3-methyl Pyrrolidine Carboxylate] |  |
